From US20040156742A1, “Synergistically-effective cyclohexylethan-1-yl ester mixtures as malodour counteractants as measured physiologically and psychometrically and methods for using same” (priority 2003, published 2004)

Assay: Adaptation curves: % odour pulses correctly identified versus inter-stimulus interval (FIGS. 9C, 9D)
Type: in vivo, human
Settings: pulse length 200 microseconds
Description: as it applies to individual malodour molecules and individual fragrance molecules is set forth in Jacob et al., “Psychometric Evaluation of Responses to Pleasant and Malodour Stimulation in Human Subjects; Adaptation, Dose Response and Gender Differences”, Int. J. Psychophysiology, (2003). An additional discussion of the model as it applies to olfaction is set forth in Wang et al., “The correlation between physiological and psychological responses to odor stimulation in human subjects” Clinical Neurophysiology 113 (2002) 542-551 at page 546.
wherein Z is the percentage of odour pulses correctly identified;
Y is the pulse duration, or “pulse length” measured in units of microseconds; and
X is the inter-stimulus interval, “ISI”, measured in units of seconds.
FIG. 9C is a set of adaptation curves for the malodour, n-butyric acid, with the vertical axis being the “Z” axis, indicated by reference numeral 90C and the horizontal axis being the “X” axis indicated by reference numeral 92C. The graph indicated by reference numeral 97C and data points therefor 970C is for a pulse length of 35 microseconds. The graph indicated by reference numeral 96C and data points therefor 960C is for a pulse length of 50 microseconds. The graph indicated by reference numeral 95C and data points therefor 950C is for a pulse length of 75 microseconds. […]

SMILES	percentage of odour pulses correctly identified, Z (point 990D on curve 93D: inter-stimulus interval X1=15 seconds, FIG. 9D)	percentage of odour pulses correctly identified, Z (point 990C on curve 93C: inter-stimulus interval X1=12 seconds, FIG. 9C)
CCCCCOC(C)=O [amyl acetate]	54%	–
CCCC(=O)O [n-butyric acid]	–	75%
